One assay has as its target T1, Human GPR120 short form (Homo sapiens, UniProt Q5NUL3).
T1 construct: expressed in transfected cells
T1 sequence (Q5NUL3 1-361): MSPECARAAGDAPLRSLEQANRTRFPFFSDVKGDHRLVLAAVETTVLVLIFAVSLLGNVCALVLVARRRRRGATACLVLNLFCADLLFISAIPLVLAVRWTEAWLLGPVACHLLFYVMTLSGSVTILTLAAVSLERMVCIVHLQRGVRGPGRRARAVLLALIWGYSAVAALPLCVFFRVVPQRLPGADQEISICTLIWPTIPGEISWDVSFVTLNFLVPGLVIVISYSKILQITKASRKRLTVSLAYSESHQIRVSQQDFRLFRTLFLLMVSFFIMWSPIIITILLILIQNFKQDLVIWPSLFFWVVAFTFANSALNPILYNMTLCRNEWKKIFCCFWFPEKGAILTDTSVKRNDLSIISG
The assay is described as follows: Human GPR120 calcium flux assay, Procedure Calcium B. In kind it is cell-based. The following applies: HEK-293 cells expressing human GPR120 short form, 4200 cells/well, FLIPR.

The target of assay [1] is T2, short form of the GPR120 receptor (Homo sapiens, UniProt Q5NUL3).
T2 construct: host or cells: PathHunter CHO-K1 GPR120S β-Arrestin Cell Line
Description: Human GPR120 DiscoveRx PathHunter β-Arrestin assay, Procedure β-arrestin B. In kind it is cell-based. The following applies: PathHunter CHO-K1 GPR120S β-Arrestin cell line, 5000 cells/well. The source says: The binding of an agonist (medium/long chain fatty acids or small molecule agonists) to the G-protein-coupled receptor GPR120 activates phospholipase C, leading to release of intracellular Ca^+2 through the generation of inositol 1,4,5-trisphosphate (InsP3 or IP3). GPR120 activation can also trigger intracellular signaling via recruitment of β-Arrestin. In the present method, agonist-induced activation of the human GPR120 receptor is monitored through the use of PathHunter CHO-K1 GPR120 β-Arrestin Cell Line engineered by DiscoveRx, as detailed below. The cell lines are designed to co-express both the ProLink/Enzyme Donor (PK)-tagged GPCR and the Enzyme […] (EA)-tagged Beta-Arrestin fusion proteins. Upon GPR120 receptor stimulation/activation, the EA-tagged β-Arrestin portion is translocated to the tagged receptor, where the two enzyme fragments are brought within close proximity. Under these conditions, these fragments can interact and form an active Beta-gal enzyme complex through Enzyme Fragment Complementation (EFC). This active Beta-gal complex can enzymatically hydrolyse the substrate to produce a detectable light signal; therefore, activation as a function of agonist concentration can be expressed as an EC50 value to determine relative compound activities. This in vitro assay therefore serves to assess compound agonist activity of the GPR120.
In Procedure β-arrestin B the cells used were PathHunter CHO-K1 GPR120S β-Arrestin Cell Line, expressing the short form of the GPR120 receptor (Accession #NM_181745), with 5000 cells/well.
The selected CHO-K1 GPR120 β-Arrestin cells were cultured in Ham's F12 media supplemented with 10% fetal bovine serum (FBS), 1% Glutamine, 1×p/s, 800 μg/ml G418 and 300 μg/ml Hygromycin B (for selection). Cell stocks were maintained and grown in a sub-confluent state using standard cell culture procedures. The day before the experiment, the cells were harvested with non-enzymatic cell dissociation buffer and re-suspended in complete growth media at the desired concentration. A Corning 384-plate was then seeded with the proper number of cells in a volume of 25 μL, per well. The seeded plates were incubated overnight at 37° C.
On the day of the experiment, the Assay Buffer containing (a) HBSS with Ca^++ and Mg^++, (b) 20 mM HEPES, and (c) 0.1% BSA stabilizer (pH 7.4) was prepared. The growth medium was gently removed from the cell plates and 20 μL of Assay Buffer added to each well. The plate was then incubated at 37° C. for 60 mins. Test compounds were serially diluted in Assay Buffer to desired concentrations (more particularly, to one or more of the following μM concentrations: 25 μM, 12.5 μM, 6.25 μM, 3.125 μM, 1.562 μM, 0.781 μM, 0.391 μM, 0.195 μM, 0.098 μM, 0.049 μM, 0.024 μM, 0.012 μM). Five μl of compound dilution was then added to each well and the plate incubated at 37° C. for 90 mins. The detection reagents were prepared according to the manufacture's instruction. Twelve μL of the detection reagents were added to each well and the plate incubated at room temperature for 60 mins.
The plates were read on an EnVision instrument, using Protocol name: Luminescence, Plate type: 384 Costar, Measurement height: 3 mm, Measurement time: 1 s, Aperture: 384 Plate aperture. The % activity relative to the positive control was calculated using the following equation:
The % Activity values were plotted versus the concentration of test compound and fitted to a sigmoidal dose-response curve with a Hill slope=1 (fixed value) using nonlinear regression with GraphPad Prism 5.0 to calculate the EC50 values. The Fitting Equation was: Y=Bottom+(Top−Bottom)/(1+10^((LogEC50−X)*HillSlope)), where X is the log of the concentration and Y is the response.

Structures are written as SMILES.

T2 sequence (P32121 whole entry partner, one chain of several): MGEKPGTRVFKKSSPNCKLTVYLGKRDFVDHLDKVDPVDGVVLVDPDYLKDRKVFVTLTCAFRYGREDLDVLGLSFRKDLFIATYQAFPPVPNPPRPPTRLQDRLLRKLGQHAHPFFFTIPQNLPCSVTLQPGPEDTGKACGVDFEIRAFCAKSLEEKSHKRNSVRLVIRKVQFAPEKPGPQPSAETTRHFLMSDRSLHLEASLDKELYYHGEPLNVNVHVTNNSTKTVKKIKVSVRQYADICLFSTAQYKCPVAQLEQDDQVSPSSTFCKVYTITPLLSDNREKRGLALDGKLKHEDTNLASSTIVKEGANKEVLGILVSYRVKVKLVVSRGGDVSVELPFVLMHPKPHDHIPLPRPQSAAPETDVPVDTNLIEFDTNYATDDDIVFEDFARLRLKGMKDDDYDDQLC

As to `Cc1c(CCC(=O)O)ccc(OCc2c(C(F)(F)F)ccn2-c2ccc(Cl)c(F)c2)c1C` [Compound 68, 3-(4-{[1-(4-Chloro-3-fluorophenyl)-3-(trifluoromethyl)-1H-pyrrol-2-yl]methoxy}-2,3-dimethylphenyl)propanoic acid], the results for the EC50 (on Human GPR120 short form; in assay [1]) were 357 nM and 311 nM, respectively.
Consider `Cc1ccc(-n2ccc(C(F)(F)F)c2COc2c(F)cc(CC(C)C(=O)O)cc2F)cc1F` (centres unmarked) [Compound 64, 3-(3,5-difluoro-4-[[1-(3-fluoro-4-methylphenyl)-3-(trifluoromethyl)-1H-pyrrol-2-yl]methoxy]phenyl)-2-methylpropanoic acid], for which the EC50 at Human GPR120 short form turned out to be 212 nM; in assay [1], 264 nM.
Taken in the same sequence, the figures for `Cc1c(CCC(=O)O)ccc(OCc2c(C(F)(F)F)ccn2-c2ccc(Cl)cc2F)c1C` [Compound 74, 3-(4-{[1-(4-Chloro-2-fluorophenyl)-3-(trifluoromethyl)-1H-pyrrol-2-yl]methoxy}-2,3-dimethylphenyl)propanoic acid] were 167 nM and 797 nM.
On to `Cc1c(CCC(=O)O)ccc(OCc2c(C(F)(F)F)ccn2-c2ccc(F)c(F)c2)c1C` [Compound 78, 3-(4-{[1-(3,4-Difluorophenyl)-3-(trifluoromethyl)-1H-pyrrol-2-yl]methoxy}-2,3-dimethylphenyl)propanoic acid], for which the results for the EC50 (on Human GPR120 short form; in assay [1]) were 305 nM and 1420 nM, respectively.

The record behind these values is US8912227B1, “Bicyclic pyrrole derivatives useful as agonists of GPR120” (Janssen Pharmaceutica NV, priority 2014, dated 2014).
